This test concerns the target JMJD2C (Homo sapiens (Human), UniProt Q9H3R0). As to the kind of experiment: JMJD2C TR-FRET in vitro enzyme inhibition assay. The test is classed as biochemical. The settings on record: 0.3 nM JMJD2C, H3K9me3 peptide, read-out: JMJ-D2C IC50. On the technique in general: TR-FRET usually uses a lanthanide donor and a delayed reading to cut background.

JMJD2C, sequence (Q9H3R0 2-372): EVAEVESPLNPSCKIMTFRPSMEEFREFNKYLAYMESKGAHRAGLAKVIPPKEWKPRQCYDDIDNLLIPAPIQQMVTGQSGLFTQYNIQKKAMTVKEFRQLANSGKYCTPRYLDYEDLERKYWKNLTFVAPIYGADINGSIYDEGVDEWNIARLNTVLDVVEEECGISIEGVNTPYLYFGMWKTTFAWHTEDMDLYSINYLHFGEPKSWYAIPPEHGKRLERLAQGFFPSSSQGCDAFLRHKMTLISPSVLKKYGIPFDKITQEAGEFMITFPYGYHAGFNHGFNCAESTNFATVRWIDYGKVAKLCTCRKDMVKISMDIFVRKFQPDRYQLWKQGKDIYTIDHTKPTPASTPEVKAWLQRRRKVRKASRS
Description: This assay determines the ability of a test compound to inhibit Jarid1A, Jarid1B, and JMJD2C demethylase activity. Baculovirus expressed Jarid1A (GenBank Accession #NM_001042603, AA1-1090) was purchased from BPS Bioscience (Cat #50110). Baculovirus expressed Jarid1B (GenBank Accession #NM_006618, AA 2-751) was purchased from BPS Bioscience (Cat #50121) or custom made by MolecularThroughput. Baculovirus-expressed JMJD2C (GenBank Accession #BC143571, AA 2-372) was purchased from BPS Bioscience (Cat #50105).
The ability of test compounds to inhibit the activity of JMJD2C was determined in 384-well plate format under the following reaction conditions: 0.3 nM JMJD2C, 300 nM H3K9me3-biotin labeled peptide (Anaspec cat #64360), 2 μM alpha-ketoglutaric acid in assay buffer of 50 mM HEPES, pH7.3, 0.005% Brij35, 0.5 mM TCEP, 0.2 mg/ml BSA, 50 μM sodium L-ascorbate, and 2 μM ammonium iron(II) sulfate. Reaction product was determined quantitatively by TR-FRET after the addition of detection reagent Phycolink Streptavidin-allophycocyanin (Prozyme) and Europium-anti-di-methylated histone H3 lysine 9 (H3K9me2) antibody (PerkinElmer) in the presence of 5 mM EDTA in LANCE detection buffer (PerkinElmer) at a final concentration of 50 nM and 1 nM, respectively.
The assay reaction was initiated by the following: 2 μl of the mixture of 900 nM H3K9me3-biotin labeled peptide and 6 μM alpha-ketoglutaric acid with 2 μl of 11-point serial diluted inhibitor in 3% DMSO were added to each well of the plate, followed by the addition of 2 μl of 0.9 nM JMJD2C to initiate the reaction. The reaction mixture was incubated at room temperature for 30 min, and terminated by the addition of 6 μl of 5 mM EDTA in LANCE detection buffer containing 100 nM Phycolink Streptavidin-allophycocyanin and 2 nM Europium-anti-H3K9me2 antibody. Plates were read by EnVisionMultilabel Reader in TR-FRET mode (excitation at 320 nm, emission at 615 nm and 665 nm) after 1 hr incubation at rt. A ratio was calculated (665/615) for each well and fitted to determine inhibition constant (IC50).

By IC50 is commonly meant the concentration needed to halve the response being measured. With “3-{[(6-chloro-1,2,3,4-tetra- hydronaphthalen-1-yl)methyl]- amino}pyridine-4-carboxylic acid [Example 68]”, the IC50 lay within 100 to 1000 nM.

For “3-{[(6-chloro-1-hydroxy- 1,2,3,4-tetrahydronaphthalen- 1-yl)methyl]amino}pyridine- 4-carboxylic acid [Example 67]”, the IC50 lay within 100 to 1000 nM.

Regarding `O=C(O)c1ccncc1NCC1CCOc2cc(F)ccc21` (stereo not drawn) [Example 65, 3-{[(7-fluoro-3,4-dihydro-2H-chromen-4-yl)methyl]amino}-pyridine-4-carhoxylic acid], the IC50 is ≤ 100 nM.
